In this assay the test system is HCT116 cells. Briefly: Mitotic arrest assay on HCT116 cells (phospho-histone H3 Ser10). It is filed as cell-based, human. Particulars: Homo sapiens, HCT-116, HCT116 cells; lowest active dose; read-out: Mitotic arrest HCT116 LAD (converted). The gist of the method:
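Seeded overnight, then compound-treated 6 h at 37 °C (≤0.1% DMSO); fixed, stained with Alexa Fluor 488 anti-phospho-H3 (Ser10) plus Hoechst 33342, imaged on InCell Analyzer 1000. Blank-subtracted signal divided by SD (sigma), triplicate; value is lowest dose giving sigma >5 (LAD).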

`CCc1cc2ccc(C(C)(C#N)Cc3cccc(-c4cnn(C)c4)c3)cc2[nH]c1=O` (centres unmarked) [Compound 17]: the minimal effective concentration was 1 µM.

As to `CCc1cc2ccc(C(C)(C#N)Cc3cccc(-c4ccccc4)c3)cc2[nH]c1=O` (centres unmarked) [Compound 18], the minimal effective concentration was 0.316 µM.

As to `CCc1cc2ccc(C(C)(C#N)Cc3cccc(I)c3)cc2[nH]c1=O` (centres unmarked) [Compound 19], the minimal effective concentration was 0.1 µM.

For the compound `CCc1cc2ccc(C(C)(C#N)Cc3cccc(N(C)C)c3)cc2[nH]c1=O` (centres unmarked) [Compound 20], the minimal effective concentration is 0.1 µM.

Turning to `CCc1cc2ccc(C(C)(C#N)Cc3cccc(N4CCOCC4)c3)cc2[nH]c1=O` (centres unmarked) [Compound 21], the minimal effective concentration was 0.316 µM.

Take `CCc1cc2ccc(C(C)(C#N)Cc3cccc(O)c3)cc2[nH]c1=O` (centres unmarked) [Compound 22]: the minimal effective concentration was 3.16 µM.

As to `CCc1cc2ccc(C(C)(C#N)Cc3cccc(OCc4ccccc4)c3)cc2[nH]c1=O` (centres unmarked) [Compound 23], the minimal effective concentration was 1 µM.

In the case of `CCc1cc2ccc(C(C)(C#N)Cc3cccc(OCCOC)c3)cc2[nH]c1=O` (centres unmarked) [Compound 24], the minimal effective concentration is 1 µM.

Values taken from US8778966B2, “Quinolinone derivatives as PARP and tank inhibitors” (Janssen Pharmaceutica, NV, priority 2007, dated 2014).
